Reference: US8865623B2, “Herbicidally active cyclic diones and derivatives thereof, processes for their preparation, compositions, and method of controlling weeds” (Syngenta Limited, priority 2009, dated 2014)

Tests used:
Format in all cases: in vivo
[1] = test system: Echinochloa crus-galli (ECHCG); assay: Pre-emergence herbicidal activity, glasshouse pot test; conditions: Echinochloa crus-galli, 312 h; Rate 250 g/ha; pre-emergence spray; evaluated after 13 days; read-out: Pre-emergence activity ECHCG (100=total damage to plant; 0=no damage to plant)
In short: (§1)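 Spray solution: technical a.i. formulated in acetone/water (50:50) with 0.5% Tween 20, diluted in water. Applied to pots 1 d (pre) or 8 d (post) after sowing; glasshouse 24/16° C day/night, 14 h light, 65% humidity. Rated at 13 d, 0–100 damage.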

Lolium perenne (LOLPE) [2] = assay: as above; conditions: Lolium perenne, 312 h; Rate 250 g/ha; pre-emergence spray; evaluated after 13 days; read-out: Pre-emergence activity LOLPE (100=total damage to plant; 0=no damage to plant)
In short: as §1

Avena fatua (AVEFA) [3] = assay: as above; conditions: Avena fatua, 312 h; Rate 250 g/ha; pre-emergence spray; evaluated after 13 days; read-out: Pre-emergence activity AVEFA (100=total damage to plant; 0=no damage to plant)
In short: as §1

[4] = test system: Alopecurus myosuroides (ALOMY); assay: as above; conditions: Alopecurus myosuroides, 312 h; Rate 250 g/ha; pre-emergence spray; evaluated after 13 days; read-out: Pre-emergence activity ALOMY (100=total damage to plant; 0=no damage to plant)
In short: as §1

[5] = test system: Echinochloa crus-galli (ECHCG); assay: Post-emergence herbicidal activity, glasshouse pot test; conditions: Echinochloa crus-galli, 312 h, rate 250 g/ha, evaluated after 13 days, glasshouse, read-out: Post-emergence activity ECHCG (100=total damage to plant; 0=no damage to plant)
In short: as §1

Lolium perenne (LOLPE) [6] = assay: as above; conditions: Lolium perenne, 312 h, rate 250 g/ha, evaluated after 13 days, glasshouse, read-out: Post-emergence activity LOLPE (100=total damage to plant; 0=no damage to plant)
In short: as §1

Avena fatua (AVEFA) [7] = assay: as above; conditions: Avena fatua, 312 h, rate 250 g/ha, evaluated after 13 days, glasshouse, read-out: Post-emergence activity AVEFA (100=total damage to plant; 0=no damage to plant)
In short: as §1

[8] = test system: Alopecurus myosuroides (ALOMY); assay: as above; conditions: Alopecurus myosuroides, 312 h, rate 250 g/ha, evaluated after 13 days, glasshouse, read-out: Post-emergence activity ALOMY (100=total damage to plant; 0=no damage to plant)
In short: as §1

Structure (SMILES) | pest or weed control at 250 g/ha [1] [%] | pest or weed control at 250 g/ha (Lolium perenne (LOLPE) [2]) [%] | pest or weed control at 250 g/ha (Avena fatua (AVEFA) [3]) [%] | pest or weed control at 250 g/ha [4] [%] | pest or weed control at 250 g/ha [5] [%] | pest or weed control at 250 g/ha (Lolium perenne (LOLPE) [6]) [%] | pest or weed control at 250 g/ha (Avena fatua (AVEFA) [7]) [%] | pest or weed control at 250 g/ha [8] [%]
CCc1ccc(Oc2ccc(Cl)c(C(F)(F)F)c2)cc1C1=C(O)C(C)(C)OC(C)(C)C1=O [Example A-183] | 60 | 80 | 20 | 30 | 90 | 40 | 50 | 70
CCc1ccc(Oc2ncc(Cl)cc2C(F)(F)F)cc1C1=C(O)C(C)(C)OC(C)(C)C1=O [Example A-143] | 100 | 70 | 40 | 60 | 100 | 100 | 100 | 100
CCc1ccc(Oc2ccc(Br)cc2)cc1C1=C(O)CCC(C)(C)C1=O [Example A-113] | 60 | 100 | 30 | 30 | 90 | 40 | 0 | 10
CCc1ccc(Oc2ncc(Cl)cn2)cc1C1=C(O)C(C)(C)OC(C)(C)C1=O [Example A-107] | 100 | 100 | 80 | 90 | 100 | 40 | 80 | 80
CCc1ccc(Oc2nc3c(Cl)cc(Cl)cc3s2)cc1C1=C(O)[C@H]2CC[C@H](C2)C1=O [Example A-345] | 100 | 100 | 60 | 90 | 100 | 100 | 100 | 80
CCc1ccc(Oc2ccc(C(F)(F)F)c(Cl)c2)cc1C1=C(O)[C@@H]2CC[C@](C)(C1=O)C2(C)C [Example A-315] | 100 | 100 | 60 | 80 | 90 | 90 | 80 | 40
CCc1ccc(Oc2ccc(C(F)(F)F)cc2C#N)cc1C1=C(O)C(C)(C)OC(C)(C)C1=O [Example A-100] | 100 | 80 | 40 | 40 | 90 | 40 | 80 | 80
CCc1ccc(Oc2ccc(C#N)cc2F)cc1C1=C(O)CC2(CCOCC2)CC1=O [Example A-270] | 100 | 90 | 60 | 90 | 100 | 70 | 90 | 90
CCc1ccc(Oc2c(Cl)cc(C(F)(F)F)cc2Cl)cc1C1=C(O)C(C)(C)OC(C)(C)C1=O [Example A-204] | 20 | 10 | 0 | 0 | 70 | 40 | 50 | 60
CCc1ccc(Oc2ccc([N+](=O)[O-])cc2C(F)(F)F)cc1C1=C(O)C(C)(C)OC(C)(C)C1=O [Example A-198] | 60 | 10 | 0 | 0 | 100 | 70 | 60 | 70
CCc1ccc(Oc2ccc(Cl)cc2Cl)cc1C1=C(O)CCCC1=O [Example A-40] | 80 | 50 | 20 | 50 | 90 | 30 | 40 | 30
CCc1ccc(Oc2ncc(C(F)(F)F)cc2C(F)(F)F)cc1C1=C(O)[C@H]2CC[C@H](C2)C1=O [Example A-341] | 100 | 100 | 90 | 100 | 100 | 100 | 100 | 90
CCc1ccc(Oc2ccc(OC)nn2)cc1C1=C(O)C(C)(C)OC(C)(C)C1=O [Example A-124] | 10 | 0 | 0 | 0 | 40 | 10 | 0 | 10
CCc1ccc(Oc2nc(C(F)(F)F)c(C#N)s2)cc1C1=C(O)C(C)(C)OC(C)(C)C1=O [Example A-115] | 0 | 0 | 0 | 0 | 60 | 0 | 10 | 0
CCc1ccc(Oc2ccc(Br)cc2F)cc1C1=C(O)[C@H]2CC[C@H](C2)C1=O [Example A-250] | 90 | 80 | 50 | 80 | 100 | 80 | 80 | 90
CCc1ccc(Oc2ccc(F)cc2)cc1C1=C(O)CC2(CCOCC2)CC1=O [Example A-35] | 100 | 70 | 70 | 90 | 100 | 80 | 90 | 80
CCc1ccc(Oc2ccc(Br)c(Cl)c2)cc1C1=C(O)[C@@H]2CC[C@](C)(C1=O)C2(C)C [Example A-241] | 80 | 70 | 0 | 30 | 90 | 60 | 70 | 40
CCc1ccc(Oc2ccc(Br)cc2F)cc1C1=C(O)CC2(CCOCC2)CC1=O [Example A-25] | 90 | 80 | 80 | 70 | 100 | 90 | 100 | 90
CCc1ccc(Oc2ncc(C(F)(F)F)cc2C(F)(F)F)cc1C1=C(O)C(C)(C)OC(C)(C)C1=O [Example A-148] | 90 | 100 | 90 | 50 | 100 | 90 | 100 | 90
CCc1ccc(Oc2cc(Cl)cc(Cl)n2)cc1C1=C(O)C(C)(C)OC(C)(C)C1=O [Example A-145] | 20 | 10 | 0 | 10 | 70 | 20 | 20 | 20
CCc1ccc(Oc2ccc(C#N)c(C#N)c2)cc1C1=C(O)C(C)(C)OC(C)(C)C1=O [Example A-77] | 70 | 30 | 20 | 40 | 70 | 30 | 30 | 60
